# Results as given in paper PMC10269165 (Antimicrobial Agents and Chemotherapy, 2023).
# System: susceptible isolate of H. contortus, exsheathed L3 larvae
# Assay: Larval motility assay (LMA), Worminator
# Assay type: cell-based, Haemonchus contortus
# Conditions: for anthelmintic activity in LMA: first round, up to 125 μM, any time point
# Excerpt: The H. contortus isolates used were TxPh-2011-S (Texas A&M University, USA) and UGA MDR 2020 (University of Georgia Athens, USA). TxPh-2011-S (Texas A&M University, USA) was originally isolated from Pronghorn antelope in West Texas in 2011 and is fully drug susceptible, phenotypically determined by the DrenchRite larval development assay (LDA; Microbial Screening Technologies, Kemps Creek, Australia). To establish this as a laboratory isolate, it was initially passaged in goats at Texas A&M University and then at The University of Georgia using both goats and sheep, and it is currently maintained in lambs at Louisiana State University. A nemabiome assay ([69]) was conducted at the University of Calgary to confirm that the isolate is 100% H. contortus. The UGA MDR 2020 (University of Georgia Athens, USA) isolate is resistant to ivermectin, benzimidazoles, levamisole, and moxidectin, as determined by the DrenchRite LDA. To establish this as a laboratory isolate, feces collected from a sheep farm in Georgia with known history of multiple anthelmintic resistance were cultured. Two donor goats were infected with the larvae recovered, which were morphologically ([70]) identified as 89% H. contortus. A fecal egg count reduction test (FECRT) was then performed in the infected goats. First, a combination treatment with albendazole at 15 mg/kg and ivermectin at 0.4 mg/kg was performed, followed by a treatment with levamisole at 12 mg/kg. Later, and to confirm resistance to moxidectin, another treatment was administered using a dose of 0.4 mg/kg of moxidectin. Posttreatment feces were recovered, coprocultures were established, and L3 larvae were identified as 100% H. contortus. Resistance to all drugs was subsequently confirmed using a DrenchRite assay.
# For LMAs, the first phase testing using compounds NSC133100 and NSC177383 was done using the Worminator system in parallel with the LDA. Initial stock solutions of 12.5 mM were prepared for each compound using 100% DMSO as a solvent. Initial stock solutions (25 μL) were then diluted in 475 μL of culture media to yield working stock solutions of 625.00, 156.30, 39.10, 9.80, 2.40, 0.60, 0.20, 0.04, and 0.00 μM in 5% DMSO for each drug. In plate, 200 μL of working stock solutions were then diluted in 800 μL of culture media, yielding concentrations of 125.00, 31.25, 7.81, 1.95, 0.49, 0.12, and 0.00 μM in 1% DMSO. For the second phase of testing, compounds showing anthelmintic activity with the LDA were tested in a second round at higher concentrations than in the first phase of testing. Initial stocks of 50 mM were prepared for compounds NSC133100, NSC177383, NSC145612, and NSC56410 using 100% DMSO as a solvent. Initial stock solutions (25-μL portions) were then diluted in 475 μL of culture media consisting of 65% Lauria-Bertani (LB) (Thermo Fisher Scientific, Branchburg, NJ), 25% NCTC (Sigma-Aldrich), 10% fetal bovine serum (Atlanta Biologicals, Flowery Branch, GA), Pen/Strep (Sigma-Aldrich) at a final concentration of […], and amphotericin B (Sigma-Aldrich) at a final concentration of […]. The working stock solutions yielded concentrations of 2,500.00, 625.00, 156.30, 39.10, 9.80, 2.40, and 0.00 μM in 5% DMSO for each compound. In each well in the plate, 200 μL of working stock solutions were then diluted in 800 μL of culture media, yielding final concentrations of 500.00, 125.00, 31.30, 7.81, 1.95, 0.49, and 0.00 μM in 1% DMSO.
# For the motility assays, 24-well plates with inserts were used (Costar, catalog no. 3379; Corning, Inc., Corning, NY). Portions (640 μL) of culture media were added to each well, and approximately 50 exsheathed larvae contained in 160 μL of culture media in each insert. Once pretreatment readings were taken, 160 μL of the drug solution was added to the well, and another 40 μL was added to the insert, reaching the final concentrations described in the protocol above. All concentrations were tested in triplicate. […]
compound,measurement,setting,value
CO[C@H]1/C=C/O[C@@]2(C)Oc3c(C)c(O)c4c(O)c(cc(O)c4c3C2=O)NC(=O)/C(C)=C\C=C\[C@H](C)[C@H](O)[C@@H](C)[C@@H](O)[C@@H](C)[C@H](OC(C)=O)[C@@H]1C [NSC133100],Percent inhibition of larval motility,"0.12 µM, 1 hour",-7.4%
same,Percent inhibition of larval motility,"0.12 µM, 4 hours",14.9%
same,Percent inhibition of larval motility,"0.12 µM, 24 hours",22.9%
same,Percent inhibition of larval motility,"0.12 µM, 48 hours",8.7%
same,Percent inhibition of larval motility,"0.12 µM, 72 hours",26.1%
same,Percent inhibition of larval motility,"0.12 µM, 96 hours",7.4%
same,Percent inhibition of larval motility,"0.12 µM, Initial",-93.9%
same,Percent inhibition of larval motility,"0.49 µM, 1 hour",-29.1%
same,Percent inhibition of larval motility,"0.49 µM, 4 hours",4.3%
same,Percent inhibition of larval motility,"0.49 µM, 24 hours",8.0%
same,Percent inhibition of larval motility,"0.49 µM, 48 hours",-9.5%
same,Percent inhibition of larval motility,"0.49 µM, 72 hours",-14.9%
same,Percent inhibition of larval motility,"0.49 µM, 96 hours",-9.0%
same,Percent inhibition of larval motility,"0.49 µM, Initial",-118.5%
same,Percent inhibition of larval motility,"1.95 µM, 1 hour",-57.6%
same,Percent inhibition of larval motility,"1.95 µM, 4 hours",-16.4%
same,Percent inhibition of larval motility,"1.95 µM, 24 hours",-8.4%
same,Percent inhibition of larval motility,"1.95 µM, 48 hours",-37.5%
same,Percent inhibition of larval motility,"1.95 µM, 72 hours",-49.0%
same,Percent inhibition of larval motility,"1.95 µM, 96 hours",-50.7%
same,Percent inhibition of larval motility,"1.95 µM, Initial",-159.9%
same,Percent inhibition of larval motility,"7.81 µM, 1 hour",27.5%
same,Percent inhibition of larval motility,"7.81 µM, 4 hours",9.1%
same,Percent inhibition of larval motility,"7.81 µM, 24 hours",25.3%
same,Percent inhibition of larval motility,"7.81 µM, 48 hours",35.3%
same,Percent inhibition of larval motility,"7.81 µM, 72 hours",32.1%
same,Percent inhibition of larval motility,"7.81 µM, 96 hours",38.0%
same,Percent inhibition of larval motility,"7.81 µM, Initial",-74.0%
same,Percent inhibition of larval motility,"31.25 µM, 1 hour",10.6%
same,Percent inhibition of larval motility,"31.25 µM, 4 hours",7.1%
same,Percent inhibition of larval motility,"31.25 µM, 24 hours",9.0%
same,Percent inhibition of larval motility,"31.25 µM, 48 hours",35.2%
same,Percent inhibition of larval motility,"31.25 µM, 72 hours",19.9%
same,Percent inhibition of larval motility,"31.25 µM, 96 hours",28.7%
same,Percent inhibition of larval motility,"31.25 µM, Initial",-64.8%
same,Percent inhibition of larval motility,"125 µM, 1 hour",4.3%
same,Percent inhibition of larval motility,"125 µM, 4 hours",-12.0%
same,Percent inhibition of larval motility,"125 µM, 24 hours",3.2%
same,Percent inhibition of larval motility,"125 µM, 48 hours",23.2%
same,Percent inhibition of larval motility,"125 µM, 72 hours",3.1%
same,Percent inhibition of larval motility,"125 µM, 96 hours",19.2%
same,Percent inhibition of larval motility,"125 µM, Initial",-8.9%
same,anthelmintic activity in LMA,,no anthelmintic activity
CO[C@@H]1/C=C/O[C@@]2(C)Oc3c(C)c(O)c4c(c3C2=O)C(=N[C@@H]2CC[C@@H](O)O[C@H]2C)C=C(NC(=O)/C(C)=C\C(=O)[C@@H]2C[C@@H]2[C@H](O)[C@@H](C)[C@@H](O)[C@@H](C)[C@H](OC(C)=O)[C@@H]1C)C4=O [NSC177383],Percent inhibition of larval motility,"0.12 µM, 1 hour",29.41%
same,Percent inhibition of larval motility,"0.12 µM, 4 hours",4.95%
same,Percent inhibition of larval motility,"0.12 µM, 24 hours",28.20%
same,Percent inhibition of larval motility,"0.12 µM, 48 hours",2.41%
same,Percent inhibition of larval motility,"0.12 µM, 72 hours",4.89%
same,Percent inhibition of larval motility,"0.12 µM, 96 hours",-16.32%
same,Percent inhibition of larval motility,"0.12 µM, Initial",-1.62%
same,Percent inhibition of larval motility,"0.49 µM, 1 hour",25.94%
same,Percent inhibition of larval motility,"0.49 µM, 4 hours",18.27%
same,Percent inhibition of larval motility,"0.49 µM, 24 hours",23.09%
same,Percent inhibition of larval motility,"0.49 µM, 48 hours",12.98%
same,Percent inhibition of larval motility,"0.49 µM, 72 hours",-5.94%
same,Percent inhibition of larval motility,"0.49 µM, 96 hours",-72.91%
same,Percent inhibition of larval motility,"0.49 µM, Initial",-11.69%
same,Percent inhibition of larval motility,"1.95 µM, 1 hour",30.56%
same,Percent inhibition of larval motility,"1.95 µM, 4 hours",33.37%
same,Percent inhibition of larval motility,"1.95 µM, 24 hours",18.80%
same,Percent inhibition of larval motility,"1.95 µM, 48 hours",14.16%
same,Percent inhibition of larval motility,"1.95 µM, 72 hours",-3.70%
same,Percent inhibition of larval motility,"1.95 µM, 96 hours",-23.78%
same,Percent inhibition of larval motility,"1.95 µM, Initial",21.82%
same,Percent inhibition of larval motility,"7.81 µM, 1 hour",26.94%
same,Percent inhibition of larval motility,"7.81 µM, 4 hours",26.72%
same,Percent inhibition of larval motility,"7.81 µM, 24 hours",22.63%
same,Percent inhibition of larval motility,"7.81 µM, 48 hours",34.44%
same,Percent inhibition of larval motility,"7.81 µM, 72 hours",14.00%
same,Percent inhibition of larval motility,"7.81 µM, 96 hours",-53.76%
same,Percent inhibition of larval motility,"7.81 µM, Initial",22.03%
same,Percent inhibition of larval motility,"31.25 µM, 1 hour",14.47%
same,Percent inhibition of larval motility,"31.25 µM, 4 hours",38.95%
same,Percent inhibition of larval motility,"31.25 µM, 24 hours",18.83%
same,Percent inhibition of larval motility,"31.25 µM, 48 hours",26.89%
same,Percent inhibition of larval motility,"31.25 µM, 72 hours",16.58%
same,Percent inhibition of larval motility,"31.25 µM, 96 hours",-23.43%
same,Percent inhibition of larval motility,"31.25 µM, Initial",28.34%
same,Percent inhibition of larval motility,"125 µM, 1 hour",42.55%
same,Percent inhibition of larval motility,"125 µM, 4 hours",10.81%
same,Percent inhibition of larval motility,"125 µM, 24 hours",16.94%
same,Percent inhibition of larval motility,"125 µM, 48 hours",42.97%
same,Percent inhibition of larval motility,"125 µM, 72 hours",27.79%
same,Percent inhibition of larval motility,"125 µM, 96 hours",41.45%
same,Percent inhibition of larval motility,"125 µM, Initial",22.02%
same,anthelmintic activity in LMA,,no anthelmintic activity
